Among the test systems are K-562 leukemia; A549 NSCLC; RPMI-8226 leukemia; SNB-75 CNS; SF-295 CNS; OVCAR-5 ovarian; CAKI-1 renal; SK-MEL-28 melanoma; U251 CNS; HT29 colon.
What all share (test): DTP human tumour cell line panel, 48 h

SMILES strings stand for the structures.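 Protocol summary: plate cells (96-well), add compound at 5 concentrations, incubate 48 h, interpolate endpoints linearly. GI50 marks 50% less growth. At the TGI there is no net growth.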

Consider `O=C(Nc1ccc(-n2cc(-c3ccncc3)c(-c3ccc(O)c(Cl)c3)n2)cc1)c1ccc(Cl)c(Cl)c1`, for which the GI50 in the experiment with K-562 leukemia is 0.966 µM; in the experiment on A549 NSCLC it was 2.87 µM; with RPMI-8226 leukemia, 0.537 µM; with SNB-75 CNS it was 2.64 µM; in the experiment on SF-295 CNS it was 0.833 µM; in the experiment with OVCAR-5 ovarian it was over 32.5 µM. Moreover, the values for the GI50 in the experiment with CAKI-1 renal, in the experiment with SK-MEL-28 melanoma and in the experiment with U251 CNS were 2.21 µM, over 32.5 µM and 0.693 µM, respectively. Besides, the TGI with K-562 leukemia is over 32.5 µM; in the experiment on A549 NSCLC, over 32.5 µM; in the experiment with RPMI-8226 leukemia, 1.44 µM; in the experiment with SNB-75 CNS, over 32.5 µM; in the experiment on SF-295 CNS it was 2.26 µM; with OVCAR-5 ovarian it was over 32.5 µM. Moreover, the TGI with CAKI-1 renal, in the experiment with SK-MEL-28 melanoma and in the experiment with U251 CNS was over 32.5 µM in each case.

Consider `CCN(CC)CCSc1nc2c([N+](=O)[O-])cccc2[nH]1`, for which the total growth inhibition concentration (TGI) in the experiment with K-562 leukemia, with A549 NSCLC, in the experiment with RPMI-8226 leukemia, in the experiment with SNB-75 CNS, in the experiment on HT29 colon and with CAKI-1 renal was over 100 µM in each case. The molecule also yielded a total growth inhibition concentration (TGI) in the experiment on SK-MEL-28 melanoma of over 100 µM.

Consider `CCCCCCCCCCCCCCCc1ccc(C(=O)C[n+]2ccccc2)cc1`, for which the GI50 in the experiment with A549 NSCLC is 0.731 µM; with SF-295 CNS, 0.653 µM; with CAKI-1 renal, 1.01 µM; in the experiment on SK-MEL-28 melanoma it was 1.21 µM. For the same molecule, the TGI with A549 NSCLC stood at 2.03 µM; with SF-295 CNS it was 14.2 µM; in the experiment on CAKI-1 renal it was 3.45 µM; in the experiment on SK-MEL-28 melanoma it was 2.99 µM.

Turning to `CNC1=C(C)C(=O)C2=C(C1=O)C(COC(N)=O)C1(OC)C3NC3CN21` (stereo unspecified), the TGI in the experiment with K-562 leukemia is over 100 µM; with A549 NSCLC, over 100 µM; in the experiment with RPMI-8226 leukemia, 66.7 µM; in the experiment with SNB-75 CNS, 0.971 µM; with SF-295 CNS, 10.5 µM; in the experiment on HT29 colon it was 4.01 µM. Further, the total growth inhibition concentration (TGI) with OVCAR-5 ovarian was found to be 50.2 µM; with CAKI-1 renal, 2.78 µM; in the experiment with SK-MEL-28 melanoma, 6.43 µM; with U251 CNS, 15 µM.

In the case of `N=C(N)c1ccc(-c2ccc(-c3ccccc3)o2)cc1`, the GI50 was 2.22 µM with K-562 leukemia; 2.51 µM in the experiment with A549 NSCLC; 2.75 µM in the experiment with RPMI-8226 leukemia; 1.45 µM in the experiment on SNB-75 CNS; 2.01 µM in the experiment on HT29 colon; 2.11 µM with OVCAR-5 ovarian. Also, the GI50 in the experiment on CAKI-1 renal is 2.78 µM; in the experiment on SK-MEL-28 melanoma it was 1.67 µM. Moreover, the TGI in the experiment on K-562 leukemia was found to be 4.99 µM; with A549 NSCLC, 6.24 µM; in the experiment with RPMI-8226 leukemia, 7.29 µM; in the experiment with SNB-75 CNS, 3.43 µM; with HT29 colon, 4.51 µM; with OVCAR-5 ovarian, 6.95 µM. In addition, the results for the TGI with CAKI-1 renal and in the experiment with SK-MEL-28 melanoma were 9.85 µM and 3.35 µM, respectively.

With `CC(=O)Nc1ccc2c(c1)C(=Nc1ccc(C(=O)O)cc1)c1ccccc1-2`, the TGI in the experiment with K-562 leukemia, with A549 NSCLC, in the experiment on RPMI-8226 leukemia, in the experiment with SF-295 CNS, in the experiment on HT29 colon and with OVCAR-5 ovarian was over 100 µM throughout. Besides, the TGI in the experiment on CAKI-1 renal, with SK-MEL-28 melanoma and with U251 CNS was over 100 µM in each case.

On to `Nc1cccc2cc(S(=O)(=O)Nc3ccc(C(=O)O)cc3)ccc12`, for which the total growth inhibition concentration (TGI) in the experiment on K-562 leukemia, with A549 NSCLC, with RPMI-8226 leukemia, in the experiment on SNB-75 CNS, in the experiment with SF-295 CNS and in the experiment on HT29 colon was over 100 µM each time. The total growth inhibition concentration (TGI) in the experiment with OVCAR-5 ovarian, with CAKI-1 renal, in the experiment on SK-MEL-28 melanoma and with U251 CNS was over 100 µM throughout.

For the molecule `CSc1nc(NC2OC(CO)C(O)C(O)C2O)c(N)c(=O)n1C` (stereo unspecified), the total growth inhibition concentration (TGI) in the experiment with K-562 leukemia, with A549 NSCLC, with RPMI-8226 leukemia, in the experiment on SNB-75 CNS, in the experiment with SF-295 CNS and with HT29 colon was over 100 µM throughout. Besides, the total growth inhibition concentration (TGI) with OVCAR-5 ovarian, in the experiment on SK-MEL-28 melanoma and with U251 CNS was over 100 µM in each case.

As for `COc1ccc(C2C(Cl)C(=O)N2NC(=O)c2ccc(NC(C)=O)cc2)cc1OC` (stereo unspecified), the concentration for total growth inhibition (TGI) with K-562 leukemia, in the experiment with A549 NSCLC, in the experiment on RPMI-8226 leukemia, in the experiment on SNB-75 CNS, in the experiment with SF-295 CNS and in the experiment with HT29 colon was over 100 µM in each case. Further, the TGI in the experiment with OVCAR-5 ovarian, in the experiment on SK-MEL-28 melanoma and with U251 CNS was over 100 µM each time.

As to `NC(=O)OCc1c(O)c2c(c(O)c1COC(N)=O)C(=O)C=CC2=O`, the TGI with K-562 leukemia, with A549 NSCLC, in the experiment on RPMI-8226 leukemia, in the experiment on SNB-75 CNS, in the experiment on SF-295 CNS and with HT29 colon was over 100 µM each time. Further, the TGI in the experiment with OVCAR-5 ovarian, in the experiment with CAKI-1 renal, in the experiment with SK-MEL-28 melanoma and with U251 CNS was over 100 µM throughout.

What is called GI50 is the concentration giving 50% growth inhibition. In general, TGI refers to the concentration at which net growth stops.

Source of the values: PubChem BioAssay (NCI).
